Results taken from patent publication US9539260B2, “Dihydro-benzo-oxazine and dihydro-pyrido-oxazine derivatives” (Novartis AG, priority 2012, dated 2017).

Tests used:
PI3K alpha = PI3K alpha (Homo sapiens (Human), UniProt P42336); assay: Enzymatic PI3K alpha isoform inhibition (lipid kinase activity, Kinase-Glo luminescence); type: biochemical; conditions: Enzymatic assay
How it was run: (§1)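 IC50s derive from 4-parameter logistic fits of % inhibition across 8 concentrations (usually 10 to 0.003 μM). Lipid kinase reaction: PI3K (10 nM) plus phosphatidylinositol (5 μg/mL) started with 2 μM ATP, stopped near 50% ATP depletion; leftover ATP quantified by Kinase-Glo luminescence.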

PI3K delta = PI3K delta (Homo sapiens (Human), UniProt O00329); assay: Enzymatic PI3K delta isoform inhibition (lipid kinase activity, Kinase-Glo luminescence); type: biochemical; conditions: Enzymatic assay
Chain of PI3K delta (O00329 other isoform, or with tags, fused parts or gaps linker GGGGGG): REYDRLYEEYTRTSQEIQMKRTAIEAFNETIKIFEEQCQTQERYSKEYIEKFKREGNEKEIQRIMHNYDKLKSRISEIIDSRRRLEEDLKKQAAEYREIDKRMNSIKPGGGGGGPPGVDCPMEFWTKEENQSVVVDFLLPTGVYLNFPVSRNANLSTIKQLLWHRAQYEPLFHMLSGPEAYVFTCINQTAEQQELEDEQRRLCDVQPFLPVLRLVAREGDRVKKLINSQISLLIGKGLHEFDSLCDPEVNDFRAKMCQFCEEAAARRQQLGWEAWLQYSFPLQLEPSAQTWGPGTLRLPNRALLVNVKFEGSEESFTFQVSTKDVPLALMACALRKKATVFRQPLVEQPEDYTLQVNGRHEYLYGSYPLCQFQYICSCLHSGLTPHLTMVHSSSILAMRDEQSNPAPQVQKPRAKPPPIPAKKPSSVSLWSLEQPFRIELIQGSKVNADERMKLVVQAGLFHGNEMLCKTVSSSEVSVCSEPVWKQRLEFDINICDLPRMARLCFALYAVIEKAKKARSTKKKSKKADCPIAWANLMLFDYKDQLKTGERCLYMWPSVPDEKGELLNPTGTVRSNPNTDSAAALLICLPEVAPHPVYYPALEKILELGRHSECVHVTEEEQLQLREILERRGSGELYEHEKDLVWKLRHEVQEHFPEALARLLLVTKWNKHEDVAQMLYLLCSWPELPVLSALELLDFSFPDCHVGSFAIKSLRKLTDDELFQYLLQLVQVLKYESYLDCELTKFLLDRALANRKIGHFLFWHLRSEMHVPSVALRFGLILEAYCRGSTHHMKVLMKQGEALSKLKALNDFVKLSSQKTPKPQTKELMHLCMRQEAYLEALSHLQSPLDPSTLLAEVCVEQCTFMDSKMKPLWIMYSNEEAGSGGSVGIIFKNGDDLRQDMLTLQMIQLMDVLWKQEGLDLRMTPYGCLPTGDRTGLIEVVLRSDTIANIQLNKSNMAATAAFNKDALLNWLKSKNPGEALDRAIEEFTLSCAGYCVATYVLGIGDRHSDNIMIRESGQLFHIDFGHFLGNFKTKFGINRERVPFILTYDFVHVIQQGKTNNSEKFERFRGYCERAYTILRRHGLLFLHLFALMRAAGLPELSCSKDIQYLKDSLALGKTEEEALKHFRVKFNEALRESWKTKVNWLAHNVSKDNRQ
How it was run: as §1

[1] = molecular target: myristoylated catalytic subunit of human PI3K delta in Rat-1 cells (Homo sapiens (Human), UniProt O00329); assay: PI3K-mediated Akt 1/2 (S473) phosphorylation in Rat-1 cells, PI3K delta; type: cell-based; conditions: Rat-1 cells overexpressing myristoylated human PI3K delta; p-Akt (S473) AlphaScreen SureFire; read-out: Cell PI3Kδ/ IC50
Chain of myristoylated catalytic subunit of human PI3K delta in Rat-1 cells (O00329 whole entry): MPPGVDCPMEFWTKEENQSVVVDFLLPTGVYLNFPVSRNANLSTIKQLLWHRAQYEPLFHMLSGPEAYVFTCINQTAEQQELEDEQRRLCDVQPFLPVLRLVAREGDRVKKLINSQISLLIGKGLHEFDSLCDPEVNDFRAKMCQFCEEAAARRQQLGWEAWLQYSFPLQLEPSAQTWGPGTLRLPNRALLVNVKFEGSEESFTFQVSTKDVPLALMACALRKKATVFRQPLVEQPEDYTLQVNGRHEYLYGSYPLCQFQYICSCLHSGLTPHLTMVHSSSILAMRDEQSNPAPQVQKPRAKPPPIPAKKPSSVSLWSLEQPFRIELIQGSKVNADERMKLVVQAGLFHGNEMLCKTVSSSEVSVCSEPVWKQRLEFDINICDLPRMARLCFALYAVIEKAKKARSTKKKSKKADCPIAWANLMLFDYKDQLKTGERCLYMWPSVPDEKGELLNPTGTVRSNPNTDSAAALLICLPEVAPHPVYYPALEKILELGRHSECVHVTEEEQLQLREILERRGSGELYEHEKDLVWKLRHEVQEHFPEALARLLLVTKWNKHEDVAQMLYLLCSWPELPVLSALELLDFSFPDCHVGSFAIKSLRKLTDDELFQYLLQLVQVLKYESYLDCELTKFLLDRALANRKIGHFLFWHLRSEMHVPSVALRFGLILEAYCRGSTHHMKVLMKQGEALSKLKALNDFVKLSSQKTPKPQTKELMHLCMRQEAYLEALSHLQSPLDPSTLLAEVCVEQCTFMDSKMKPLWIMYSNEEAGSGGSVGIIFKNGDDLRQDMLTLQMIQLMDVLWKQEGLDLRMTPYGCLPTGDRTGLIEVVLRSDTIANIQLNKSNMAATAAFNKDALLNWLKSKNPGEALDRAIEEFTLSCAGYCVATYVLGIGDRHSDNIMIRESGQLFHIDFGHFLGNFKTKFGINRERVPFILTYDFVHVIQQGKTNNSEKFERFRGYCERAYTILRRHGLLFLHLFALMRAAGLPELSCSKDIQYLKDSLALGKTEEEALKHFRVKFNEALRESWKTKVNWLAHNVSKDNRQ
Description: 2.1 Phosphoinositide-3 Kinase (PI3K)-Mediated Akt 1/2 (S473) Phosphorylation in Rat-1 Cells
Rat-1 cells stably overexpressing a myristoylated form of the catalytic subunit of human phosphoinositide-3 kinase (PI3K) alpha, beta or delta were plated in 384-well plates at a density of 7500 (PI3K alpha), 6200 (PI3K beta), or 4000 (PI3K delta) cells in 30 ul complete growth medium (Dulbecco's modified Eagle's medium (DMEM high glucose) supplemented with 10% (v/v) fetal bovine serum, 1% (v/v) MEM non essential amino acids, 10 mM HEPES, 2 mM L-glutamine, 10 μg/mL puromycin and 1% (v/v) Penicillin/Streptomycin) and were incubated at […]/5% CO2/95% humidity for 24 h. Compounds were diluted in 384-well compound plates to obtain 8-point serial dilutions for 40 test compounds in 90% DMSO, as well as 4 reference compounds plus 16 high controls and 16 low (inhibited) controls. Predilution plates were prepared by dispensing pipetting 250 nl of compound solutions into 384-well polypropylen plates using a Hummingwell nanoliter dispensor. Compounds were prediluted by the addition of 49.75 ul complete growth medium. 10 ul of prediluted compound solution were transferred to the cell plate using a 384-well pipettor, resulting in a final DMSO concentration of 0.11%.
Cells were incubated for 1 h at […]/5% CO2/95% humidity. The supernatant was removed, the cells were lysed in 20 ul of lysis buffer for AlphaScreen® SureFire® detection.
For detection of p-AKT(Ser473), the SureFire® p-Akt 1/2 (Ser473) Assay Kit (PerkinElmer, U.S.A) was used. 5 ul of cell lysate was transferred to 384-well low volume Proxiplates for detection using a 384-well pipettor. Addition of AlphaScreen® SureFire® reagents was done according to the manufacturer's protocol. First, 5 ul of reaction buffer plus activation buffer mix containing AlphaScreen® acceptor beads was added, the plate was sealed, and incubated on a plate shaker for 2 hours at room temperature. Second, 2 ul of dilution buffer containing AlphaScreen® donor beads was added, and the plate was incubated on plate shaker as above for a further 2 hours. The plate was read on an AlphaScreen® compatible plate reader, using standard AlphaScreen® settings.

[2] = system: rat B cells derived from whole blood; assay: Determination of rat B cell activation in whole blood (CD86 upregulation after anti-IgM and rIL-4); type: cell-based; conditions: anti-IgM + rIL-4 stimulation, CD86 on CD45RA+ B cells, read-out: RWB/IC50 CD86
Description: 2.3 Determination of Rat B Cell Activation
PI3Kδ has been recognized to modulate B cell function when cells are stimulated through the B cell receptor (BCR) (Okkenhaug et al. Science 297:1031 (2002). For assessing the inhibitory property of compounds on B cell activation, the upregulation of activation markers CD86 on rat B cells derived from whole blood is measured after stimulation with anti-IgM and recombinant IL-4. The CD86 molecule (also known as B7-2) is primarily expressed on antigen-presenting cells, including B cells. Resting B cells express CD86 at low levels, but upregulate it following stimulation of e.g. the BCR or IL-4 receptor. CD86 on a B cell interacts with CD28 on T cells. This interaction is required for optimal T cell activation and for the generation of an optimal IgG1 response (Carreno et al. Annu Rev Immunol. 20:29 (2002)).
Whole blood was collected from the abdominal aorta adult male Lewis rats (LEW/HanHsd) oby using a 10 ml syringe with hypodermic needle pre-coated with sodium heparin. Blood was transferred into 50 ml Falcon tubes and the anticoagulant concentration was adjusted to 100 U/ml.
For assessment of the in vitro effects of immunosuppressive drugs, heparinized blood was prediluted to 50% with medium. As medium served DMEM high glucose (Animed cat#1-26F01-I) supplemented with 100 U/ml penicillin, […], 2 mM L-glutamin, 50 mg/ml dextran 40 and 5% fetal calf serum (FCS, Fetaclone I, Gibco #10270-106). Then, 190 μl prediluted blood was spiked with 10 μl of pre-diluted test compound in 96 well U-bottomed microtiter plates (Nunc) resulting in a 3-fold serial dilution with a concentration range from 20 to 0.0003 μM. Control wells were pretreated with DMSO to obtain a final concentration of 0.5% DMSO. Cultures were set up in duplicates, mixed well by agitation on a plate shaker (Heidolph Titramax 101; 30 sec, speed 900), pipetting up and down and agitated on the plate shaker again. Cultures were incubated at 37° C., 5% CO2 for 1 hr. Then, 20 μl of polyclonal goat anti-rat IgM Ab (Serotec, cat#302001) and 10 μl of diluted recombinant rIL-4 (Immunotools #340085) were added to obtain final concentrations of 30 μg/ml and 5 ng/ml, respectively. Plates were mixed by agitation on a plate shaker as above and incubated for 24 hrs at 37° C., 5% CO2.
After incubation, 15 μl of a 25 mM EDTA solution was added per well and shaken for 15 min to detach adherent cells. For analysis of surface activation markers, samples were then stained with PE-Cy5-labeled anti-ratCD45RA (BD cat#557015) to allow gating on B cells in FACS analysis. In addition, samples were stained with PE-labeled anti-rat CD86 (BD cat#551396). All staining procedures were performed at rt for 30 min in the dark. After incubation, samples were transferred to 96-deep well V-bottomed microtiter plates (Corning #396096) containing 2 ml/well of BD Lysing Solution (BD #349202). After lysis of erythrocytes samples were washed with 2 ml of CellWASH (BD #349524). Data was acquired on an LSRII or FACScalibur flow cytometer (BD Biosciences) using Cellquest Plus or DIVA (version 6.1.1) software, respectively. Lymphocytes were gated in the FSC/SSC dot blot according to size and granularity and further analyzed for expression of CD45RA and activation markers. Data were calculated from dot blots or histograms as percentage of cells positively stained for activation markers within the CD45RA+ population.
The percentage inhibition of B cell activation after exposure to drug was calculated by the following formula: […]
ORIGIN 7 software (OriginLab Corporation, Northampton, Mass.) was used for non-linear regression curve fitting.

Chain of PI3K alpha (P42336 other isoform, or with tags, fused parts or gaps): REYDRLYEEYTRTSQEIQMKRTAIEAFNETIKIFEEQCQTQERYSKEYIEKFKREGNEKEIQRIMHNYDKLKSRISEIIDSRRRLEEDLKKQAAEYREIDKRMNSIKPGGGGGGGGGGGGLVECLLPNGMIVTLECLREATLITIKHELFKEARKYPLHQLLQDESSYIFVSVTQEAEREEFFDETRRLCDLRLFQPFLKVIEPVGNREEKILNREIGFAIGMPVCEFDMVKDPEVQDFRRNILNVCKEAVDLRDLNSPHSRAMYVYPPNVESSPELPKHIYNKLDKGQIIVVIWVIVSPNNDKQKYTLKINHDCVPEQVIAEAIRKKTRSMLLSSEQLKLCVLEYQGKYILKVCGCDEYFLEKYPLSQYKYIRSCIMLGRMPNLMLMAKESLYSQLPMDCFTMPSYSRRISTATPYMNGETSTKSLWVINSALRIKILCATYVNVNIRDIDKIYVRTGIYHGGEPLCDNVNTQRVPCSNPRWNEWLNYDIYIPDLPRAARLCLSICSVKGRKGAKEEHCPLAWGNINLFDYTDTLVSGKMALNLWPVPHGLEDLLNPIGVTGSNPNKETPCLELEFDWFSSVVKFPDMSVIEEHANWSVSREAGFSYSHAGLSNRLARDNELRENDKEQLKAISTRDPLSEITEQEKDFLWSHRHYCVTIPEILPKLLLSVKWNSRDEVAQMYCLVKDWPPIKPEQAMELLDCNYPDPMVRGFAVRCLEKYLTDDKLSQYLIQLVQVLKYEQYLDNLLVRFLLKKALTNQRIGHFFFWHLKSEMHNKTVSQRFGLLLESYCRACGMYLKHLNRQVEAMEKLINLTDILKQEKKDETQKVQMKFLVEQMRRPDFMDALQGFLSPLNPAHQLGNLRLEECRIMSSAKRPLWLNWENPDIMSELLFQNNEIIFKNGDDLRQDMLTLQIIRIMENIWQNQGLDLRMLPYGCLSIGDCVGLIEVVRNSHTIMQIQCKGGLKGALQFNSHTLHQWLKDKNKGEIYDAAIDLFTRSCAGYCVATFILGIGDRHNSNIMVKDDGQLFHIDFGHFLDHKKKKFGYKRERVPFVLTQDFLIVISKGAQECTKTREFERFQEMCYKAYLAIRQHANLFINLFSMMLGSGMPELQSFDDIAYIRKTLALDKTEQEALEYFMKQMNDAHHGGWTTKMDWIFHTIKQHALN

| Compound | IC50 (PI3K alpha) [nM] | IC50 (PI3K delta) [nM] | IC50 [1] [nM] | IC50 [2] [nM] |
| --- | --- | --- | --- | --- |
| COc1ncc(N2CCOc3cnc(O[C@H]4CCN(C(=O)c5cn(C)cn5)C4)cc32)cc1C [Example E1, {(S)-3-[1-(6-Methoxy-5-methyl-pyridin-3-yl)-2,3-dihydro-1H-pyrido[3,4-b][1,4]oxazin-7-yloxy]-pyrrolidin-1-yl}-(1-methyl-1H-imidazol-4-yl)-methanone] | 98 | 4 | 7 | 78 |
| [2H]C1([2H])COc2ccc(O[C@H]3CCN(C(=O)C4CCOCC4)C3)cc2N1c1cnc(OC)c(C)c1 (single isomer, unassigned) [Q] | 1140 | 14 | 145 | 37 |
| COc1ncc(N2CCOc3cnc(O[C@H]4CCN(C(=O)C5CCS(=O)(=O)CC5)C4)cc32)cc1C [Example F1, (1,1-Dioxo-hexahydro-1lambda*6*-thiopyran-4-yl)-{(S)-3-[1-(6-methoxy-5-methyl-pyridin-3-yl)-2,3-dihydro-1H-pyrido[3,4-b][1,4]oxazin-7-yloxy]-pyrrolidin-1-yl}-methanone] |  |  |  | 7 |
| COc1ncc(N2CCOc3cnc(O[C@H]4CCN(C(=O)C5CCOCC5)C4)cc32)cc1C [Example E3, {(S)-3-[1-(6-Methoxy-5-methyl-pyridin-3-yl]-2,3-dihydro-1H-pyrido[3,4-b][1,4]oxazin-7-yloxy]-pyrrolidin-1-yl}-(tetrahydro-pyran-4-yl)-methanone] | 494 | < 3 | 18 | 14 |
| Cc1cc(N2CCOc3ccc(O[C@H]4CCN(C(=O)C5CCOCC5)C4)cc32)cnc1S(C)(=O)=O [Example B1, {(S)-3-[4-(6-Methanesulfonyl-5-methyl-pyridin-3-yl)-3,4-dihydro-2H-benzo[1,4]oxazin-6-yloxy]-pyrrolidin-1-yl}-(tetrahydro-pyran-4-yl)-methanone] | 390 | 14 | 154 | 29 |
| COc1ncc(N2CCOc3ccc(O[C@H]4CCN(C(=O)c5cn(C)cn5)C4)cc32)cc1C#N [Example D1, (S)-2-methoxy-5-(6-((1-(1-methyl-1H-imidazole-4-carbonyl)pyrrolidin-3-yl)oxy)-2H-benzo[b][1,4]oxazin-4(3H)-yl)nicotinonitrile] |  | 5 | 147 | 84 |

Second part, the molecule after the results:

| IC50 (PI3K alpha) [nM] | IC50 (PI3K delta) [nM] | IC50 [1] [nM] | IC50 [2] [nM] | Compound |
| --- | --- | --- | --- | --- |
| 71 | < 3 | 18 | 40 | COc1ncc(N2CCOc3cnc(O[C@H]4CCN(C(=O)C5CCS(=O)(=O)CC5)C4)cc32)cc1C(F)F [Example F7, {(S)-3-[1-(5-Difluoromethyl-6-methoxy-pyridin-3-yl)-2,3-dihydro-1H-pyrido[3,4-b][1,4]oxazin-7-yloxy]-pyrrolidin-1-yl}-(1,1-dioxo-hexahydro-1lambda*6*-thiopyran-4-yl)-methanone] |
| 322 | 6 | 43 | 37 | COc1ncc(N2CCOc3ccc(O[C@H]4CCN(C(=O)C5CCOCC5)C4)cc32)cc1C [Example A1, (S)-(3-((4-(6-methoxy-5-methylpyridin-3-yl)-3,4-dihydro-2H-benzo[b][1,4]oxazin-6-yl)oxy)pyrrolidin-1-yl)(tetrahydro-2H-pyran-4-yl)methanone] |
| 300 | 19 | 81 | 68 | COc1ncc(N2CCOc3ccc(O[C@H]4CCN(C(=O)C5CCOCC5)C4)cc32)cc1C#N [Example C1, 2-Methoxy-5-{6-[(S)-1-(tetrahydro-pyran-4-carbonyl)-pyrrolidin-3-yloxy]-2,3-dihydro-benzo[1,4]oxazin-4-yl}-nicotinonitrile] |
